Test results: paper PMC8546149, “Antibiotic-chemoattractants enhance neutrophil clearance of Staphylococcus aureus” (Nature Communications, 2021)
In brackets after ≈: the same amount, converted by molar mass. Several values for one entry are separate records, joined by “and”; a condition that tells them apart may be missing. Equal entries are not always repeated. Non-standard residues stand in square brackets, D forms with d. No end group written: not given here. *: point of attachment. Pra = C#CC[C@H](N)C(=O)O; For = O=C*

T1: formyl peptide receptor 1 (FPR1) (human, UniProt P21462 1-350)
T1 sequence (looked up): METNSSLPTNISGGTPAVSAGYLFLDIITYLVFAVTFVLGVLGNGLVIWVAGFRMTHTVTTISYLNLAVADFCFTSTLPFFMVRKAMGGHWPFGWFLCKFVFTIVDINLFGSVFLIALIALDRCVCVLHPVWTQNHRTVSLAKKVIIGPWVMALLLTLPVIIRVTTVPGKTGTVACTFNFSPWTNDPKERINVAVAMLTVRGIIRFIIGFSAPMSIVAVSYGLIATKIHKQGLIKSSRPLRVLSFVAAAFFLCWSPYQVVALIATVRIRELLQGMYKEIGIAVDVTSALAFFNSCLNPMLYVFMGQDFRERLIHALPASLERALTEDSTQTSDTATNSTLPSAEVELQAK

B1: fMLFG = van (fMLFG conjugated to the C-terminus of vancomycin, no PEG linker) (peptide)
peptide: For-MLFG[Pra]
modifications: also: C-terminal propargylglycine linked by click (triazole) to azide-modified vancomycin carboxyl group

How the values were obtained:
S. aureus = test: Antimicrobial microbroth dilution assay (growth, MIC); type: cell-based; conditions: Staphylococcus aureus, 20 h, 90% growth inhibition at 20 h, ±SD, n=4
Procedure: All bacterial isolates used in this study are listed in Supplementary Table 1. The American Type Culture Collection strain (ATCC 29213) and S. aureus strains were cultured onto brain heart infusion (BHI) agar (BD) or into broth (BD) and grown at 37 °C with shaking. S. aureus was grown in cation adjusted Muller Hinton Broth II (CAMHB, Becton Dickson) for testing. All bacterial strains were stored in glycerol broth at −80 °C.
Antimicrobial activity of the antibiotic-chemoattractants was determined as per the Clinical and Laboratory Standards Institute guidelines for microbroth dilution assays. Compounds stocks were prepared as two-fold serial dilution at 10x stock concentration required (final concentration of DMSO 0.5%). Growth of the S. aureus (5 × 10^5 CFU/mL in CAMHB) was monitored in 96-well flat bottom polypropylene microtiter plates (Greiner) covered with BreatheEasy membranes (Diversified Biotech) and absorbance of each well was measured at 595 nm every 4 h for 24 h (Clariostar plate reader, software v5.20R5, BMG). The percentage growth was calculated relative to the no compound control and the average of three biological replicates plotted using GraphPad Prism 9 software. The minimum inhibitory concentration was determined by the lowest drug concentration that inhibited bacterial growth to 90% compared to the 0 μM control.

human neutrophils = test: Transwell chemotaxis assay; type: cell-based; conditions: any of the concentrations tested (1-1000 nM)
Procedure: For neutrophils used in transwell assays whole blood was collected in the presence of EDTA, under approval from Monash University Human Research Ethics Committee (project #9572) with written informed consent from healthy human donors; donors were de-identified.
The chemotaxis assay was performed in a 96-transwell plate with 3 µm pores (Corning). The plate was prepared by adding 200 μL of peptide in chemotaxis buffer (4 mM L-glutamine, 0.5% Human Serum Albumin, Sigma, 49% Roswell Park Memorial Institute (RPMI) 1640, 49% Hank’s buffered salt solution, ThermoFisher) into the bottom receiving wells at a final peptide concentration of 1, 10, 100, and 1000 nM (0.02% DMSO). The negative control of 0.02% DMSO was used. The top of the transwell plate was loaded with 200,000 neutrophils in 75 μL chemotaxis buffer. The plate was incubated in the dark at 37 °C with 5% CO2 for 1.5 h. […] Elastase activity was used as an indicator of neutrophil numbers and was measured by adding the chromogenic elastase substrate N-methoxysuccinyl-Ala-Ala-Pro-Val-p-nitroanilide (Sigma) at a final concentration of 1 mM[35]. After 30 min at room temperature, the absorbance at 405 nm was determined using a microplate reader (Clariostar plate reader, BMG). […]

[1] = Mouse pneumonia model, lung histology (alveoli space, nuclei); type: in vivo; parameters: Area of lung: unit not given here; conditions: each line is an individual value, listed as Van
Procedure: For pathology assessment, excised lungs from one mouse for each of the treatment group was fixed in 10% buffered formalin before undergoing routine histological processing (Monash University Histology Platform). Lungs were embedded in paraffin, cut into 5 µm thick sections and stained with hematoxylin and eosin. Tissue pathology was assessed by a veterinary pathologist (Dr Mark Williamson, Gribbles Veterinary Pathology, Clayton, Australia).
The loss of alveoli structure was quantified in the H&E sections by determining the area of white space in six FOV (1.8 × 1.2 mm) in the outer lobes of the lung (threshold of 0–240). In addition, the number of nuclei in these FOV were also determined. This was performed by isolating nuclei in the image (threshold of 0–130) and then using the analyze particle function (particles 80–4000, circularity 0.05–1) in FIJI[36] to count the number of nuclei detected. Data were plotted using GraphPad Prism 8 software.

S. aureus (SH1000-GFP) = test: Infection-on-a-chip S. aureus growth (GFP area) with neutrophils; type: cell-based, Staphylococcus aureus
Procedure: Use of this microfluidic device for monitoring migration of neutrophils and control of the S. aureus growth in cell culture medium has been outlined in detail previously. Briefly, microfluidic devices were primed with S. aureus (SH1000-GFP, 1 × 10^6/mL) in culture media (Iscove’s Modified Dulbecco’s Medium + 10% Fetal Bovine Serum) by loading the outer chamber and applying vacuum to draw bacteria into the inner chambers. The outer chamber was then washed by pushing 200 µL of media through the device using a pipette, and loaded with neutrophils (5.5 × 10^6/mL, stained with Hoechst 33342 dye, 10 min at 32 μM). Additionally, neutrophil phagocytosis was monitored by using pHrodo Red S. aureus BioParticles® (Life Technologies) in replace of live S. aureus cells. […] The concentration of cells were determined by hemocytometer.
Kinetics of neutrophil migration, S. aureus growth and phagocytosis was determined using imaging with an automated Nikon Eclipse TiE inverted wide-field microscope with stage control and perfect focus system run through the Nikon NIS element v4. […] The percentage of neutrophils recruited into the chamber was determined relative to the total number of neutrophils in each FOV divided by the number of chambers visible. […] The pHrodo or S. aureus GFP fluorescence within the microchamber was calculated by thresholding the image and measuring the area in FIJI[36]. […]

[2] = target: T1, formyl peptide receptor 1 (FPR1); test: cell-based or functional assay

Molecule | MIC (S. aureus; A8819 (daptomycin susceptible, ST105)) [µM] | MIC (S. aureus; ATCC 29213 / MSSA, ATCC 29213 (MSSA)) [µM] | MIC (S. aureus; MRSA, A5937 (MRSA, ST5)) [µM] | MIC (S. aureus; MRSA, A5948 (MRSA, ST8)) [µM] | MIC (S. aureus; MRSA, A6300 (MRSA, ST5)) [µM] | MIC (S. aureus; MRSA, A8090 (MRSA, ST5)) [µM] | MIC (S. aureus; MRSA, A9719 (MRSA, ST5)) [µM] | MIC (S. aureus; MRSA, A9754 (MRSA, ST8)) [µM] | MIC (S. aureus; MSSA, A9635 (MSSA, ST1892)) [µM] | neutrophil recruitment (in words) (human neutrophils) | Area of lung [1] | Nuclei [1] | growth inhibition of S. aureus by neutrophils in the microfluidic assay (S. aureus (SH1000-GFP)) | ERK1/2 phosphorylation at 5 min in CHO cells overexpressing human FPR1, potency of the conjugate against the free peptide (lower potency) [2] [fold] | calcium mobilization in CHO cells overexpressing human FPR1, potency of the conjugate against the free peptide (lower potency) [2] [fold]
CN[C@H](CC(C)C)C(=O)N[C@H]1C(=O)N[C@@H](CC(N)=O)C(=O)N[C@H]2C(=O)N[C@H]3C(=O)N[C@H](C(=O)N[C@H](C(=O)O)c4cc(O)cc(O)c4-c4cc3ccc4O)[C@H](O)c3ccc(c(Cl)c3)Oc3cc2cc(c3O[C@@H]2O[C@H](CO)[C@@H](O)[C@H](O)[C@H]2O[C@H]2C[C@](C)(N)[C@H](O)[C@H](C)O2)Oc2ccc(cc2Cl)[C@H]1O [Vancomycin, vancomycin] | 0.8 ± 0.1 (≈ 1.16 µg/mL) | 1 ± 0.25 (≈ 1.45 µg/mL) | 0.6 ± 0.01 (≈ 0.87 µg/mL) | 0.3 ± 0.03 (≈ 0.435 µg/mL) | 1 ± 0.2 (≈ 1.45 µg/mL) | 0.6 ± 0.01 (≈ 0.87 µg/mL) | 1 ± 0.3 (≈ 1.45 µg/mL) | 1.1 ± 0.06 (≈ 1.59 µg/mL) | 0.6 ± 0.01 (≈ 0.87 µg/mL) | no neutrophil recruitment | 61.3 and 69.7 and 55.1 and 61.6 and 71.0 and 68.4 and 57.8 | 6013 and 1856 and 2087 and 3027 and 4794 and 2455 |  |  | 
Van-C(H-MLFG-Tz) [C12] |  |  |  |  |  |  |  |  |  | no neutrophil recruitment |  |  | no observable growth inhibition |  | 
B1 |  |  |  |  |  |  |  |  |  |  |  |  |  | 10 | > 90
